Test results published in ChEMBL document CHEMBL1158550, “The cytotoxic styryl lactone goniothalamin is an inhibitor of nucleocytoplasmic transport” (Bioorg Med Chem Lett, 2010).
The source made the active and inactive calls. The calls are words filed in the database; no cut-off is given here.

Experiments:
[1] = system: MDA-MB-231; assay: Induction of apoptosis in human MDA-MB-231 cells; format: functional, cell-based
[2] = system: MDA-MB-231; assay: Cytotoxicity against human MDA-MB-231 cells; format: functional, cell-based
[3] = target: Exportin-1 (Homo sapiens) (UniProt O14980); assay: Inhibition of CRM1-mediated nuclear export of Rio2 in human HeLa cells at 1 uM; format: cell-based
Chain of Exportin-1 (Homo sapiens) (O14980 whole entry): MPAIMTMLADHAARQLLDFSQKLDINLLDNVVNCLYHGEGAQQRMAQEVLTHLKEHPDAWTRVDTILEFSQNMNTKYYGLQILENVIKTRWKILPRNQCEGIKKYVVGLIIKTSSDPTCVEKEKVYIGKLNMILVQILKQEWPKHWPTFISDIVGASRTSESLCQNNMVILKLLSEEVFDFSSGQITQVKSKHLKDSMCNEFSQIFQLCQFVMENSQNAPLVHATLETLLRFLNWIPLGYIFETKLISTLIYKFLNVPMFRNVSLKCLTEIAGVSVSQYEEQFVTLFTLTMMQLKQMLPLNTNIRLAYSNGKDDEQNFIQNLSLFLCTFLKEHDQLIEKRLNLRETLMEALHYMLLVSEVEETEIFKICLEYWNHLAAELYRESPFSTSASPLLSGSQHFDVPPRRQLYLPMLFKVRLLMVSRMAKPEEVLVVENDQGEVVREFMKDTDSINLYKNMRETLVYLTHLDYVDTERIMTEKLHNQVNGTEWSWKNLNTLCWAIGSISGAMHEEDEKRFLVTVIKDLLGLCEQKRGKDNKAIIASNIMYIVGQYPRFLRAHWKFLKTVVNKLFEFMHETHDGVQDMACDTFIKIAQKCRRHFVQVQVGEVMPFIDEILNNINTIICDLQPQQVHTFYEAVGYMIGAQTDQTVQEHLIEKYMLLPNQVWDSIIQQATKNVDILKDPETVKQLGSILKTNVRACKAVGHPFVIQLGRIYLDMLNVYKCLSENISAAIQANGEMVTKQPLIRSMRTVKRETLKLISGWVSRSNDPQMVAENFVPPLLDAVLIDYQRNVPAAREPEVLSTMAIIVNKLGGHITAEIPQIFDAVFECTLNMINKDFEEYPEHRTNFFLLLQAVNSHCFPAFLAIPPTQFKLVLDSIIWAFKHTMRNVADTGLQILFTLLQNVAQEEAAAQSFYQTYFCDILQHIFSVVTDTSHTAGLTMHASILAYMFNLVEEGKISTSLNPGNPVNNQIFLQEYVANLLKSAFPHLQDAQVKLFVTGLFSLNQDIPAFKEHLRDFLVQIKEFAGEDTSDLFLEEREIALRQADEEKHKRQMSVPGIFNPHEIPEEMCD

[4] = target: Exportin-1 (Homo sapiens) (UniProt O14980); assay: Inhibition of CRM1-mediated nuclear export of Rio2 in human HeLa cells at 2 uM; format: cell-based

| SMILES | inhibition [3] | inhibition [4] | Activity [1] | IC50 [2] [nM] |
| --- | --- | --- | --- | --- |
| O=C1C=CC[C@H](/C=C/c2ccccc2)O1 [GONIOTHALAMIN] | Active |  | Active | 1460 |
| O=C1C=CC[C@H](C#C/C=C/c2ccccc2)O1 |  | inactive |  |  |
| O=C1C=CC[C@H](Cc2ccccc2)O1 |  | inactive |  |  |

Second part, led by results:

| inhibition [3] | inhibition [4] | SMILES | Activity [1] | IC50 [2] [nM] |
| --- | --- | --- | --- | --- |
|  | inactive | O=C1C=CC[C@H](c2ccccc2)O1 |  |  |
|  | inactive | O=C1C=CC[C@H](c2ccc(-c3ccccc3)cc2)O1 |  |  |
